Consider 10 compounds from US6313153A, “Compositions and methods for treating nephritis and inhibiting TGF -β related conditions using pyridylacrylamide derivatives” (Tsumura & Co., priority 1997, dated 2001).

The subject of one experiment is anti-GBM nephritic mice. The experiment is described as follows: anti-GBM nephritic mice: proteinuria, serum cholesterol, blood urea nitrogen and serum creatinine.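 On Proteinuria 10th day: minus not effective plus trend double p<0.05 triple p<0.01 quadruple p<0.001 improvement vs control.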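 On Proteinuria 5th day: minus not effective plus trend double p<0.05 triple p<0.01 quadruple p<0.001 improvement vs control.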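 On Serum Parameter BUN (blood urea nitrogen): minus not effective plus trend double p<0.05 triple p<0.01 quadruple p<0.001 improvement vs control.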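 On Serum Parameter S-Ch (serum cholesterol): minus not effective plus trend double p<0.05 triple p<0.01 quadruple p<0.001 improvement vs control.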 The experiment is classed as in vivo, BALB/c mice. As to conditions: for Total Evaluation: 3 × (number of + in proteinuria) + (number of + in serum parameter); for Proteinuria 5th day: 5th day from intravenous injection of anti-GBM serum; for Proteinuria 5th day / Proteinuria 10th day / Serum Parameter BUN (blood urea nitrogen) / Serum Parameter S-Ch (serum cholesterol) / Serum Parameter S-Cr (serum creatinine): oral; for Proteinuria 10th day: 10th day from intravenous injection of anti-GBM serum; for Serum Parameter BUN (blood urea nitrogen) / Serum Parameter S-Ch (serum cholesterol) / Serum Parameter S-Cr (serum creatinine): 11th day.

Another experiment has as its system active TGF-β1. The experiment is described as follows: production of active TGF-β1 in glomeruli isolated from nephritic mice (ELISA). The experiment is classed as cell-based, BALB/c male mice. The note with it: Mus musculus, 10^-6 M, 48 hours, read-out: Inhibition rate (%) of production of active TGF-β1. As to the method: (§1) BALB/c male mice were adapted in a feeding chamber for 1 week before subjecting to experiments. Nephritis was induced by subcutaneously injecting an emulsion of rabbit γ-globulin and Freund's complete adjuvant on the back in a dose amount of 1.0 mg per mouse and, after 5 days (on the zeroth day), intravenously injecting rabbit anti-mouse GBM serum in a dose amount of 0.1 ml per mouse. After 1 day from the injection of anti-serum, the glomeruli were isolated through sieves with different sizes and washed twice. Each compound to be tested (10^-6 M) was added while the solvent was added to the control groups. The glomeruli were incubated in RPMI-1640 serum-free medium for 48 hours. The amount of production of active TGF-β1 was determined by measuring the supernatant itself after the incubation for 48 hours in ELSA method. Further, the supernatant was treated with hydrochloric acid and the pH was returned with sodium hydroxide. The total amount of TGF-β1 produced in the supernatant was measured in ELISA method. The protein concentration in the medium was also measured as glomeruli protein concentration. The inhibition rate was calculated by the following equation.
(§2) Inhibition rate (%)=100×(value of control group-value of sample)/(value of control group)

In a further experiment the test system is total TGF-β1. The experiment is described as follows: production of total TGF-β1 in glomeruli isolated from nephritic mice (ELISA). It is filed as cell-based, BALB/c male mice. The note with it: Mus musculus, 10^-6 M, 48 hours, supernatant acid treated, read-out: Inhibition rate (%) of production of total TGF-β1. The method, then: as §1, §2
In general terms: An ELISA detects its analyte on a solid surface through an enzyme-linked reagent.

The next experiment deals with TGF-β1. As to the kind of experiment: Glomerular TGF-β1 Expression in IgA Nephropathy in Mice (immunohistochemical staining score). The experiment is classed as in vivo, Male ddY mice. As to conditions: for staining score (Index), glomerular TGF-β1: 5 weeks, Mean ± S.E. The text has this: Effects of the compounds of the present Invention on the Glomerular TGF-β1 Expression in IgA Nephropahty in Mice
Male ddY mice of 9 weeks old were used, each group consisting of 5 mice. One kidney was nephrectomized from the mice on the zero week, and carbon was intravenously injected from 1 week after the nephrectomy (once per week, total three times). In Experiment 1, administration was commenced on the final day of the intravenous injection of carbon. In Experiment 2, administration was commenced after the mice were allowed to stand for 10 weeks from the intravenous injection of carbon. In both Experiments, the administration was continued for 5 weeks and then the kidney was taken, fixed with […] and embedded in paraffin. Sliced specimens were stained as TGF-β1 positive area by the immunohistochemical analysis method using TGF-β1 antibody.
Staining was evaluated according to the Kagami et al. method (Kagami S., Border WA., Ruslahti E., Noble B.: Coordinated expression of β integrins and transforming growth factor-β induced matrix proteins in glomerulonephritis. Lab Invest 1993, 69, 68-76) and is shown as staining score (Index).

Setting [1] is: Experiment 2, 2.0 mg/kg, p < 0.05 vs control.

Structures can show the parent of a compound that is named as a salt.

Description for anti-GBM nephritic mice: BALB/c mice (5 weeks old, purchased from Nippon Charles Liver) were quarantined and adapted for about 1 week before subjecting to experiments. These mice were divided into several groups for the experiments so that average body weights and standard deviations were almost identical in all groups. Mouse anti-GBM (glomerular basement membrane) nephritis was caused by immunizing the mice with rabbit γ-globulin (1 mg) with Freund's complete adjuvant and intravenously injecting rabbit anti-mouse GBM serum on the fifth day from the immunization. Each compound tested was forcedly orally administered via an oral sonde almost simultaneously with the intravenous injection of the anti-GBM serum. On the 5th and 10th days from the intravenous injection, urine was taken by a plastic metabolic cage and proteinuria was measured (Ohtsuka Tonein TP2). On the 11th day, blood was taken by cutting the carotid and serum cholesterol (S--Ch), blood urea nitrogen (BUN) and serum creatinine (S--Cr) were measured by Toshiba TBA-380 autoanalyzer.

The inhibition is the drop in the measured response relative to a control, in per cent. Regarding `COc1cc(CCN(C)C(=O)/C=C/c2cccnc2)ccc1O` [Compound 73], in the experiment on anti-GBM nephritic mice, the “Total Evaluation” value is on record as 22, the “Proteinuria 5th day” value is listed as “+++”, the “Proteinuria 10th day” value was “+++” and the “Serum Parameter BUN (blood urea nitrogen)” value (“Serum Parameter BUN” for short) was “+”. In addition, in the experiment on anti-GBM nephritic mice, the “Serum Parameter S-Ch (serum cholesterol)” value is given as “+++” and the “Serum Parameter S-Cr (serum creatinine)” value is given as “-”. Further, the inhibition at 1 µM in the experiment with active TGF-β1 was 78%. In the experiment on total TGF-β1, the inhibition at 1 µM was 84%.
Take `COc1ccc(CCN(C)C(=O)/C=C/c2cccnc2)cc1OC` [Compound 84, (E)-N-(3,4-dimethoxyphenethyl)-N-methyl-3-(3-pyridyl)-2-propenoic acid amide]: in the experiment on anti-GBM nephritic mice, the “Total Evaluation” value came out at 23, the “Proteinuria 5th day” value is “+++”, the “Proteinuria 10th day” value is “+++” and the “Serum Parameter BUN” value was “+++”. For the same compound, in the experiment on anti-GBM nephritic mice, the “Serum Parameter S-Ch (serum cholesterol)” value was “++” and the “Serum Parameter S-Cr (serum creatinine)” value is “-”. For the same compound, the inhibition at 1 µM with active TGF-β1 was found to be 40%. Moreover, the inhibition at 1 µM in the experiment on total TGF-β1 was 85%.
With `CCOC(=O)COc1cccc(CCNC(=O)/C=C/c2cccnc2)c1` [Compound 99], in the experiment on anti-GBM nephritic mice, the “Total Evaluation” value is 21, the “Proteinuria 5th day” value is given as “+++”, the “Proteinuria 10th day” value is “+++” and the “Serum Parameter BUN” value is “+”. Further, in the experiment on anti-GBM nephritic mice, the “Serum Parameter S-Ch (serum cholesterol)” value was “-” and the “Serum Parameter S-Cr (serum creatinine)” value is listed as “++”. Further, the “glomerular TGF-β1 expression” value in the experiment on TGF-β1 (Experiment 1) is recorded as “tendency of inhibiting glomerular TGF-β1 expression”. In addition, in the experiment on TGF-β1 (Experiment 1, 0.1 mg/kg), the “% inhibition of Index” value was found to be 15% and the “staining score (Index), glomerular TGF-β1” value (from here on “staining score (Index)”) was 0.17 ± 0.04. Moreover, in the experiment with TGF-β1 (Experiment 1, 0.5 mg/kg), the “% inhibition of Index” value worked out at 35% and the “staining score (Index)” value came out at 0.13 ± 0.03. Further, in the experiment with TGF-β1 (Experiment 1, 2.0 mg/kg), the “% inhibition of Index” value is listed as 45% and the “staining score (Index)” value was 0.11 ± 0.03. In addition, in the experiment on TGF-β1 (Experiment 2), the “increase of Index” value is reported as “significantly inhibited the increase of Index”. In the experiment with TGF-β1 (Experiment 2, 0.1 mg/kg), the “% inhibition of Index” value is reported as 29% and the “staining score (Index)” value turned out to be 0.29 ± 0.04. Also, in the experiment with TGF-β1 (setting [1]), the “staining score (Index)” value was found to be 0.18 ± 0.05 and the “% inhibition of Index” value is given as 56%. The “production of TGF-β1 in vivo” value with TGF-β1 (Experiments 1 and 2, conclusion) was “inhibiting action on the production of TGF-β1 in vivo”.
Turning to `O=C(/C=C/c1cccnc1)NCCc1cccc(O)c1` [Compound 81, (E)-N-(3-hydroxyphenethyl)-3-(3-pyridyl)-2-propenoic acid amide], in the experiment with anti-GBM nephritic mice, the “Total Evaluation” value is 26, the “Proteinuria 5th day” value is “+++”, the “Proteinuria 10th day” value is given as “+++” and the “Serum Parameter BUN” value was “+++”. Moreover, in the experiment on anti-GBM nephritic mice, the “Serum Parameter S-Ch (serum cholesterol)” value is “+++” and the “Serum Parameter S-Cr (serum creatinine)” value was “++”. Besides, the inhibition at 1 µM with active TGF-β1 is 58%.
Consider `CCN(CCc1ccc(OC)c(OC)c1)C(=O)/C=C/c1cccnc1` [Compound 12], for which, in the experiment on anti-GBM nephritic mice, the “Total Evaluation” value turned out to be 8, the “Proteinuria 5th day” value is on record as “-”, the “Proteinuria 10th day” value is “+” and the “Serum Parameter BUN” value is on record as “+”. In the experiment on anti-GBM nephritic mice, the “Serum Parameter S-Ch (serum cholesterol)” value is reported as “+” and the “Serum Parameter S-Cr (serum creatinine)” value is “+++”. Further, in the experiment on total TGF-β1, the inhibition at 1 µM was 37.8%.
As to `COc1ccc(CCN(C)C(=S)/C=C/c2cccnc2)cc1OC` [Compound 135, (E)-N-(3,4-dimethoxyphenethyl)-N-methyl-3-(3-pyridyl)-2-propenoic acid thioamide hydrochloride], in the experiment with anti-GBM nephritic mice, the “Total Evaluation” value is reported as 6, the “Proteinuria 5th day” value is “-”, the “Proteinuria 10th day” value is listed as “+” and the “Serum Parameter BUN” value is “+”. Moreover, in the experiment on anti-GBM nephritic mice, the “Serum Parameter S-Ch (serum cholesterol)” value is “+” and the “Serum Parameter S-Cr (serum creatinine)” value is “+”. Besides, in the experiment on total TGF-β1, the inhibition at 1 µM was determined as 47.1%.
Turning to `COc1ccc(CCN(C)C(=O)/C=C/c2cncc(Cl)c2)cc1OC` [Compound 29], in the experiment with anti-GBM nephritic mice, the “Total Evaluation” value amounted to 16, the “Proteinuria 5th day” value is “++”, the “Proteinuria 10th day” value is “++” and the “Serum Parameter BUN” value is on record as “+”. In the experiment with anti-GBM nephritic mice, the “Serum Parameter S-Ch (serum cholesterol)” value is given as “++” and the “Serum Parameter S-Cr (serum creatinine)” value was “+”. The inhibition at 1 µM in the experiment on total TGF-β1 stood at 32.6%.
For `COc1ccc(CCN(C)C(=O)/C(C)=C/c2cccnc2)cc1OC` [Compound 62], in the experiment with anti-GBM nephritic mice, the “Total Evaluation” value is reported as 14, the “Proteinuria 5th day” value is reported as “-”, the “Proteinuria 10th day” value is “+++” and the “Serum Parameter BUN” value was “++”. Besides, in the experiment on anti-GBM nephritic mice, the “Serum Parameter S-Ch (serum cholesterol)” value was “+++” and the “Serum Parameter S-Cr (serum creatinine)” value was “+”. Further, the inhibition at 1 µM in the experiment on total TGF-β1 is 31.9%.
For the compound `O=C(O)COc1cccc(CCNC(=O)/C=C/c2cccnc2)c1` [Compound 148], the inhibition at 1 µM in the experiment with active TGF-β1 worked out at 45%; in the experiment on total TGF-β1 it was 78.3%.
Turning to `COC(=O)c1cncc(/C=C/C(=O)N(C)CCc2ccc(OC)c(OC)c2)c1` [Compound 33], in the experiment on anti-GBM nephritic mice, the “Total Evaluation” value is on record as 7, the “Proteinuria 5th day” value is “++”, the “Proteinuria 10th day” value is “++” and the “Serum Parameter BUN” value is given as “-”. Further, in the experiment on anti-GBM nephritic mice, the “Serum Parameter S-Ch (serum cholesterol)” value was “++” and the “Serum Parameter S-Cr (serum creatinine)” value is recorded as “+”. Besides, the inhibition at 1 µM in the experiment on total TGF-β1 was 49.8%.
